Six compounds from patent US7645756B2, “Nitrogenous fused heteroaromatic ring derivative” (Banyu Pharmaceutical Co. Ltd., priority 2004, dated 2010) can be followed below.

For this experiment, the target named is T1, human histamine-3 receptor (Homo sapiens, UniProt Q9Y5N1).
T1 construct: expressed in transfected cells; host or cells: HEK293 and CHO-K1 (membrane preparation)
Put plainly: Histamine analogue-binding inhibition test ([35S]GTPγS binding, SPA). In kind it is biochemical. Particulars: for IC50: 50% inhibitory concentration to the specific [35S]GTPγS binding, membrane specimen of histamine-3 receptor expressing cells (HEK293, CHO-K1), 20 nM R-methylhistamine, 25° C., 3 hours; for inhibition of the binding of N-alpha-methylhistamine (histamine analogue) to histamine-H3 receptor: summary in words of the table's results. The source says:
A cDNA sequence coding for a human histamine-3 receptor [see International Laid-Open WO00/39164) was cloned with expression vectors pCR2.1, pEF1x (by Invitrogen) and pCI-neo (by Promega). The resulting expression vector was transfected into host cells, HEK293 and CHO-K1 (American Type Culture Collection), according to a cationic lipid process [see Proceedings of the National Academy of Sciences of the United States of America, Vol., 84, p. 7413 (1987)] to obtain histamine-3 receptor expression cells.
A membrane specimen prepared from the cells having expressed a histamine-3 receptor was incubated in an assay buffer (50 mM Tris buffer, 100 mM NaCl, 5 mM MgCl2, pH 7.4) along with a test compound, 20 nM R-methylhistamine (histamine analogue, by Sigma), 10?M GDP (guanine nucleotide diphosphate, by Sigma), 200 pM [^35S]GTPγS (guanine nucleotide triphosphate analogue, by Amersham) and SPA resin (W heat germ agglutinin SPA beads, by Amersham) therein, on a 96-well optiplate (by Packard) at 25° C. for 3 hours, then centrifuged at 3,000 rpm, and the activity was determined with Topcount (by Packard). The non-specific binding was determined in the presence of 10 μM GTPγS (by Sigma), and the 50% inhibitory concentration (IC50) of the test compound to the specific [^35S]GTPγS binding was calculated [see British Journal of Pharmacology, Vol. 135, p. 383 (2002)].

T1 sequence (Q9Y5N1 whole entry): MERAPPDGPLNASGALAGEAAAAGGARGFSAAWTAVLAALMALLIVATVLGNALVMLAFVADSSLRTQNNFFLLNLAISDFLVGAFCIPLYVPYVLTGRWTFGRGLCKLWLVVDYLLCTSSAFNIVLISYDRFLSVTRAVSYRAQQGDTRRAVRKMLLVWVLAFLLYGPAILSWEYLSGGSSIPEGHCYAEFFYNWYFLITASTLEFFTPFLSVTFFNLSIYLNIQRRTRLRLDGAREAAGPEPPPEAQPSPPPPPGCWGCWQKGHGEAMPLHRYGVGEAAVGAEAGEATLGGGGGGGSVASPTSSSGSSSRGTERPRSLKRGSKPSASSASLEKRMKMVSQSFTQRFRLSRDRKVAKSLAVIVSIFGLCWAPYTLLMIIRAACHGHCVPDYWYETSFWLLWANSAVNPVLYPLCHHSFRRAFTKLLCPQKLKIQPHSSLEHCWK

What is called IC50 is the midpoint of a concentration-inhibition curve. Read a high IC50 as weaker potency in that assay. Turning to “2-[4-(3-piperidin-1-ylpropoxy)-phenyl]-3aH-pyrazolo[1,5-d][1,2,4]triazine [Example 1]”, the half-maximal inhibitory concentration (IC50) was determined as 6.8 nM and the “inhibition of the binding of N-alpha-methylhistamine (histamine analogue) to histamine-H3 receptor” value was “strongly inhibited”.
Turning to “3-Phenyl-6-[6-(3-piperidin-1-ylpropyl)-pyridin-3-ylmethoxy]-[1,2,4]triazolo[3,4-a]phthalazine [Example 24]”, the IC50 is 10 nM and the “inhibition of the binding of N-alpha-methylhistamine (histamine analogue) to histamine-H3 receptor” value is reported as “strongly inhibited”.
Regarding `c1cc(-c2ccc3nncn3n2)ccc1OCCCN1CCCCC1` [Example 10, 6-[4-(3-piperidin-1-ylpropoxy)phenyl]-[1,2,4]triazolo[4,3-b]pyridazine], the IC50 stood at 1.8 nM and the “inhibition of the binding of N-alpha-methylhistamine (histamine analogue) to histamine-H3 receptor” value is “strongly inhibited”.
For `Cc1nn2cnnc2cc1-c1ccc(OCCCN2CCCCC2)cc1` [Example 19, 6-Methyl-7-[4-(3-Piperidin-1-ylpropoxy)-phenyl]-[1,2,4]triazolo[4,3-b]pyridazine], the IC50 was found to be 1.4 nM and the “inhibition of the binding of N-alpha-methylhistamine (histamine analogue) to histamine-H3 receptor” value was “strongly inhibited”.
In the same order, the values of `Cc1nnc2c3cccnc3c(-c3ccc(OCCCN4CCCCC4)cc3)nn12` [Example 30, 3-Methyl-6-[4-(3-piperidin-1-ylpropoxy)-phenyl]-pyrido[3,2-d][1,2,4]triazolo[4,3-b]pyridazine] are 0.1 nM and “strongly inhibited”.
With `c1cc2c(-c3ccc(OCCCN4CCCCC4)cc3)nn3cnnc3c2cn1` [Example 69], the IC50 was determined as 0.23 nM and the “inhibition of the binding of N-alpha-methylhistamine (histamine analogue) to histamine-H3 receptor” value was “strongly inhibited”.
